Experimental findings from article PMC6463727, “Rational design of a heterotrimeric G protein α subunit with artificial inhibitor sensitivity” (The Journal of Biological Chemistry, 2019) are described below.

What all share (assay): cell-based
Holding throughout (settings): read-out: YM pIC50 (converted)

One experiment deals with T1, Gα16 (G16 WT) S185V (Homo sapiens, UniProt P30679, S185V).
T1 construct: gene GNA15; human Gα16 cDNA in pcDNA3.1(+), expressed in CRISPR/Cas9 Gαq/Gα11-null HEK293 cells (transient); endogenous Gβγ
T1 sequence (P30679 1-374 S185V): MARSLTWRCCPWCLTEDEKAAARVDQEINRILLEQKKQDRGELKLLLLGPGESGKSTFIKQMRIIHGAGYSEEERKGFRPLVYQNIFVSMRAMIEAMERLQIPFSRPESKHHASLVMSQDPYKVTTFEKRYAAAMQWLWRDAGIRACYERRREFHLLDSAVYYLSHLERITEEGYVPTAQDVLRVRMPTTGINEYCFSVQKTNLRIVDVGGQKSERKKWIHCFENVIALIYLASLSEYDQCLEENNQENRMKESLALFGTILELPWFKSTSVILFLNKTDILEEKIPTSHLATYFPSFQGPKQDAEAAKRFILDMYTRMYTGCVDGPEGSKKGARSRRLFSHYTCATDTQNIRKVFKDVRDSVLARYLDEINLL
Also on record: species or system HEK293 Gαq/Gα11-null (CRISPR/Cas9), transfected Gα. On the procedure:
Quantification of DMR signals was performed by calculation of the maximum responses. Data points from concentration-response or inhibition curves of individual functional experiments were fitted to the following four-parameter logistic function. (Eq. 1) Y=Bottom+(Top−Bottom)/1+10^(logEC50−x)slope Concentration-effect curves represented in figures were normalized by setting each experimental maximal effect as 100% response. All data are expressed as mean + or ± S.E. of at least three independent experiments performed in technical triplicates. […] Because none of our mutant proteins were […], we searched for additional residues that, when mutated, may incur activity loss for the two depsipeptides. We focused our attention on residues that (i) differed between Gαq and Gα16, (ii) were not addressed previously by mutagenesis, and (iii) were located on both linkers, including adjacent regions, to either directly interact with the depsipeptides (if side-chain or Gα atoms were within 5 Å to YM) or to be close enough to assist in stabilizing the inhibitor–protein interactions. Aspartate 71 (Asp-71) and valine 182 (Val-182) fulfilled these criteria (Fig. 3A; see also Fig. 2A): Asp-71 is part of an aspartic acid–arginine salt bridge that likely provides the interface between the depsipeptides and linker 1 by stabilizing and maintaining the inhibitor–linker 1 spacing (Fig. 3B). […]

In a further experiment the target is T2, Gα16 (G16 WT) M187V (Homo sapiens, UniProt P30679, M187V).
T2 construct: gene GNA15; human Gα16 cDNA in pcDNA3.1(+), expressed in CRISPR/Cas9 Gαq/Gα11-null HEK293 cells (transient); endogenous Gβγ
T2 sequence (P30679 1-374 M187V): T1 sequence (P30679 1-374 S185V) with V185S, M187V
On the set-up: species or system HEK293 Gαq/Gα11-null (CRISPR/Cas9). On the procedure: (§1) Successful mutations were verified by DNA sequencing. Subconfluent cell cultures were transiently transfected with the respective expression plasmids using the polyethylenimine reagent (Polysciences, Warrington, PA) following the protocol provided by the manufacturer. All data were analyzed using GraphPad Prism 8.0.0 (GraphPad Inc., La Jolla, CA). Quantification of DMR signals was performed by calculation of the maximum responses. Data points from concentration-response or inhibition curves of individual functional experiments were fitted to the following four-parameter logistic function. (Eq. 1) Y=Bottom+(Top−Bottom)/1+10^(logEC50−x)slope Concentration-effect curves represented in figures were normalized by setting each experimental maximal effect as 100% response. All data are expressed as mean + or ± S.E. of at least three independent experiments performed in technical triplicates.

The target in the next experiment is T3, Gα16 (G16 WT) C196P (Homo sapiens, UniProt P30679, C196P).
T3 construct: gene GNA15; human Gα16 cDNA in pcDNA3.1(+), expressed in CRISPR/Cas9 Gαq/Gα11-null HEK293 cells (transient); endogenous Gβγ
T3 sequence (P30679 1-374 C196P): T1 sequence (P30679 1-374 S185V) with V185S, C196P
On the set-up: species or system HEK293 Gαq/Gα11-null (CRISPR/Cas9). The procedure: as §1

The next experiment has as its target T4, Gα16 (G16 WT) E74D (Homo sapiens, UniProt P30679, E74D).
T4 construct: gene GNA15; human Gα16 cDNA in pcDNA3.1(+), expressed in CRISPR/Cas9 Gαq/Gα11-null HEK293 cells (transient); endogenous Gβγ
T4 sequence (P30679 1-374 E74D): T1 sequence (P30679 1-374 S185V) with E74D, V185S
Also on record: species or system HEK293 Gαq/Gα11-null (CRISPR/Cas9). On the procedure:
as §1

Positions count from the first letter of the chain named. Numbered stars: 1 amine (or outer) side, 2 acyl side, 3 side chain; on linkers, the order of the positions; unused ones are H or OH. Bridge positions count the residues as written; N and C are the ends. Square brackets hold non-standard residues; d marks the D form. Peptide text beside a SMILES is read from it. X2 = CC(=O)NC(C(=O)OC(C(C)C)C(N[*:1])C(=O)[*:2])C(O)C(C)C; PhLac = O=C(O)[CH](O)Cc1ccccc1; NMeT = CN[CH](C(=O)O)[CH](C)O; NMeA = CN[CH](C)C(=O)O; NMeDha = C=C(NC)C(=O)O

For the compound `C=C1C(=O)NC(C)C(=O)N(C)C(C)C(=O)NC(C(OC(=O)C(NC(C)=O)C(O)C(C)C)C(C)C)C(=O)N(C)C(C(C)OC)C(=O)OC(C)C(NC(C)=O)C(=O)OC(Cc2ccccc2)C(=O)N1C` (stereo not shown) [YM, YM-254890] (Ac-T[PhLac][NMeDha]A[NMeA][X2][NMeT](Me); ester 1-C; configuration not given here), the IC50 was about 316 µM on Gα16 (G16 WT) S185V, over 1000 µM at Gα16 (G16 WT) M187V, over 1000 µM at Gα16 (G16 WT) C196P and over 1000 µM at Gα16 (G16 WT) E74D.
